From BindingDB's records for doi:10.1016/j.bmcl.2013.03.093 (Rhône-Poulenc Rorer, 2013)

test: Antagonist activity at CRTh2 receptor in human whole blood assessed as inhibition of PGD2-induced eosinophil shape change preincubated for 10 mins followed by PGD2 addition measured after 4 mins by side scatter analysis

Structure (SMILES) | IC50
Cc1nn(Cc2ccccc2S(=O)(=O)c2ccccc2)c(C)c1CC(=O)O | 1700 nM
Cc1c(CC(=O)O)c(-c2ccccc2)nn1Cc1ccccc1S(=O)(=O)c1ccccc1 | 2400 nM
Cc1c(CC(=O)O)c(=O)[nH]n1Cc1ccccc1S(=O)(=O)c1ccccc1 | 1000 nM

More lines, now with the values ahead:

IC50 | Structure (SMILES)
2100 nM | Cc1nn(-c2cccc(NC(=O)[C@H]3C[C@@H]3c3ccccc3)c2)c(C)c1CC(=O)O
8100 nM | Cc1c(CC(=O)O)c(-c2ccc(Cl)cc2)nn1Cc1ccccc1S(=O)(=O)c1ccccc1
